Molecules are shown by their SMILES. pIC50: −log10 of the molar value.

Results on two compounds are retold here after patent US7829708B2, “Metabolically inert antifolates for treating disorders of abnormal cellular proliferation and inflammation” (Chelsea Therapeutics, Inc., priority 2004, dated 2010).

Assay [1] addresses T1, human DHFR (Homo sapiens, UniProt P00374).
T1 sequence (P00374 1-187): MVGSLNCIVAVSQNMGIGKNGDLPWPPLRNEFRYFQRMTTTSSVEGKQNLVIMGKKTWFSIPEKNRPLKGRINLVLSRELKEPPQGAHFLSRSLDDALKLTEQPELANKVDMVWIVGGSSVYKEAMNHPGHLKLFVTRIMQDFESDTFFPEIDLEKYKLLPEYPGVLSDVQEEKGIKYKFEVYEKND
The assay is described as follows: Inhibition of recombinant dihydrofolate reductase in vitro. Format: biochemical. The settings on record: read-out: I50 (human DHFR). From the text: (§1) The ability of M-TREX to inhibit recombinant dihydrofolate reductase (DR) and thymidylate synthase (TS) in vitro studied in comparison to other antifolate drugs.

Assay [2] concerns the target Human TS (Homo sapiens, UniProt P04818). Kind of assay: Inhibition of recombinant thymidylate synthase in vitro. The settings on record: read-out: I50 (Human TS). Format: biochemical.
Excerpt: as §1

Sequence of Human TS (P04818 whole entry): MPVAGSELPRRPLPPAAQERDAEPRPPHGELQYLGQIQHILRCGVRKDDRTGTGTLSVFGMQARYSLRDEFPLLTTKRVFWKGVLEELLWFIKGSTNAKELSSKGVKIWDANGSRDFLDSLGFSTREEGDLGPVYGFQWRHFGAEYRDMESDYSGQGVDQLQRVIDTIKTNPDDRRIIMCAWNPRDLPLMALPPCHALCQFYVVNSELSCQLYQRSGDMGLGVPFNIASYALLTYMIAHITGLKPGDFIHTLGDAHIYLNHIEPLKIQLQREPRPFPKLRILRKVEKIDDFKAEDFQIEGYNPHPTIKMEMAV

`C=C(CC(NC(=O)c1ccc(CCc2cnc3nc(N)nc(N)c3n2)cc1)C(=O)O)C(=O)O` (stereo not drawn) [MDAM, methylene-1-deazaaminopterine, reference compound]: the pIC50 in assay [1] was 7.36.

With `C=C(CC(NC(=O)c1ccc(CCc2ccc3nc(N)nc(N)c3c2)cc1)C(=O)O)C(=O)O` (stereo not drawn) [M-TREX, 4-Amino-4-deoxy-5,8,10-trideazapteroyl-4′-methylene glutamic acid], the pIC50 is 5.42 in assay [2] and 7.77 in assay [1].
